Literature values, collected in EP1228757B1 (Uni-Pharma Kleon Tsetis Pharmaceutical Laboratories S.A., priority 2001, dated 2002).

System: albino rats
Conditions: endo-peritoneally administered to albino rats

CC(O)CO (centres unmarked) [Propylene glycol]
LD50: higher than 8000 mg/kg

Glycerol formal
LD50: 3000 mg/kg
